Read-outs that look alike come from different tables or passages of the source.
Assays:
[1] = cited from earlier work; for Time of peak plasma levels: oral, substantially the same if administered vaginally
blood pressure [2] = test: Blood pressure effect of Misoprostol in humans; format: in vivo, human; details: administered to humans; dosages up to 800 μg
[3] = system: women in the third stage of labour; format: in vivo
Excerpt: The study protocol was reviewed and approved by the local Ethics Committee. Information sheets explaining the aims of the trial were distributed to potential participants either in the antenatal classes, antenatal clinics, and the Day Assessment Area. On admission to labour ward women were reminded about the trial and a written informed consent was obtained if they still wished to participate in the study.
The main objective of this study was to estimate the incidence of primary postpartum haemorrhage (PPH). This was defined as estimated blood loss of or more than 500 ml. Other measures of blood loss were also considered e.g. severe PPH i.e. >1000 ml; secondary PPH (after 24 hours); need for blood transfusion; use of therapeutic oxytocics (i.e. the need for extra oxytocics); length of third stage; incidence of manual removal of placenta; the need for subsequent evacuation of the retained products of conception; and the change in haemoglobin and packed cell volume in those who had instrumental delivery and/or who had blood loss of 500 ml or more compared to the Haemoglobin done late in pregnancy. Potential adverse effects of the drug used were also recorded e.g. incidence of vomiting, diarrhoea, shivering and hypertension (defined as diastolic blood pressure >100 or Systolic Blood pressure >150). All of these measures were documented by the midwife on call on a specially designed form with demographic information and information related to the type and circumstances of delivery.
The principle criteria for exclusion were: placenta praevia, multiple pregnancy, intrauterine death, gestational age less than 32 weeks gestation, women with previous PPH and women in their sixth pregnancy or more. In this pilot study, women with hypertension, preeclampsia or pregnancy induced hypertension were also excluded.
Syntometrine was not given but midwives were instructed to do so if they felt there was a clinical indication. Otherwise the delivery of the placenta was managed according to hospital policy (active management policy). Blood loss was estimated clinically by the attendant midwife or obstetrician. A sample of venous blood was obtained two days later after birth for haemoglobin and packed cell volume assessment from women who had instrumental delivery or from those who had blood loss of 500 ml or more. A record was kept of the last recorded blood pressure and temperature before birth and one hour after delivery.
Categorical variables are summarised as numbers and percentages, whereas continuous variables that are normally distributed are presented as means and standard deviations (SD), continuous variables that are not normally distributed are presented as medians and interquartile ranges (IQR). Comparisons between the systolic, diastolic blood pressure, haemoglobin, haematocrit and temperature before and after delivery were conducted via the paired t-test. Association between two categorical variables was assessed via Chi-square testing. The significance level was set to the 5% level.

blood pressure [4] = details: patients; about 400 μg; cited from earlier work
blood pressure [5] = details: animal studies; about 800 μg in a single dose; cited from earlier work
[6] = system: uterus (uterotonic contraction); details: intramuscular route, as part of Syntometrine; cited from earlier work
[7] = after delivery (one hour), 600 μg oral, n = 184
[8] = after minus before delivery, n = 184
[9] = before delivery (last recorded, before drug), n = 184
[10] = one hour after delivery vs last measured before delivery, not statistically significant

**Q.** With `CCCCC(C)(O)C/C=C/[C@H]1[C@H](O)CC(=O)[C@@H]1CCCCCCC(=O)O` (mixture of isomers) [Misoprostol acid] as the compound, how does the “Time of peak plasma levels” value [1] read?
**A.** Its value is “less than fifteen”.

**Q.** Which “Unchanged drug in the plasma or urine after use” value ([1]; extensive metabolism during and/or prior to gastro intestinal absorption) does the source give for `CCCCC(C)(O)C/C=C/[C@H]1[C@H](O)CC(=O)[C@@H]1CCCCCCC(=O)OC` (mixture of isomers) [Misoprostol] here?
**A.** Its value is “no unchanged drug is detected”.

**Q.** What about the “Time of peak plasma levels” value [1] of the same compound?
**A.** The value was “less than fifteen”.

**Q.** What about the Hypertensive effect (blood pressure [2]) of the same compound?
**A.** Its Hypertensive effect is “not hypertensive”.

**Q.** And the “Number with blood loss >= 500 ml” value ([3]; 600 μg Misoprostol orally immediately after delivery, n = 237)?
**A.** Its value is 13.

**Q.** What about the Cases of infection ([3]; 600 μg oral) of the same compound?
**A.** The Cases of infection was “no cases”.

**Q.** And the “Incidence of shivering: patients who had epidural anaesthesia vs those who had not” value ([3]; 600 μg oral)?
**A.** The value was “no significant difference”.

**Q.** What about the “Incidence of vomiting relative to that reported when syntometrine is used” value ([3]; 600 μg oral) of the same compound?
**A.** Its value is “almost half”.

**Q.** And the “% with blood loss > 1000 ml” value ([3]; 600 μg oral, n = 237)?
**A.** Its value is “(0%)”.

**Q.** What about the “% with blood loss greater than 500” value ([3]; 600 μg oral, n = 237) of the same compound?
**A.** Its value is 3%.

**Q.** And the “% with diastolic - 100 (mm Hg)” value ([3]; 600 μg oral, n = 237)?
**A.** Its value is “(0%)”.

**Q.** What about the “% with haemoglobin < 9 (g/l)” value ([3]; 600 μg oral, n = 237) of the same compound?
**A.** Its value is “(2%)”.

**Q.** What about the “% with systolic - 150 (mm Hg)” value ([3]; 600 μg oral, n = 237) of the same compound?
**A.** Its value is “(1%)”.

**Q.** And the “% with third stage length >= 30 minutes” value ([3]; 600 μg oral, n = 237)?
**A.** The value was “(0.5%)”.

**Q.** What about the “Median (IQR) of blood loss” value ([3]; 600 μg oral, n = 237) of the same compound?
**A.** Its value is 200 mL.

**Q.** What about the “Median (IQR) third stage length” value ([3]; 600 μg oral, n = 237) of the same compound?
**A.** The value was 5 min.

**Q.** What about the “Number who had shivering” value ([3]; 600 μg oral, n = 237) of the same compound?
**A.** Its value is 148.

**Q.** And the “Number with blood loss > 1000 ml” value ([3]; 600 μg oral, n = 237)?
**A.** Its value is 0.

**Q.** And the “Number with blood loss greater than 500” value ([3]; 600 μg oral, n = 237)?
**A.** Its value is 6.

**Q.** And the “Number with diastolic - 100 (mm Hg)” value ([3]; 600 μg oral, n = 237)?
**A.** Its value is 0.

**Q.** And the “Number with haemoglobin < 9 (g/l)” value ([3]; 600 μg oral, n = 237)?
**A.** Its value is 4.

**Q.** And the “Number with manual removal of placenta” value ([3]; 600 μg oral, n = 237)?
**A.** The value was 4.

**Q.** And the “Number with repeat syntometrine injection” value ([3]; 600 μg oral, n = 237)?
**A.** The value was 12.

**Q.** And the “Number with systolic - 150 (mm Hg)” value ([3]; 600 μg oral, n = 237)?
**A.** Its value is 2.

**Q.** What about the “Number with third stage length >= 30 minutes” value ([3]; 600 μg oral, n = 237) of the same compound?
**A.** Its value is 1.

**Q.** And the “Patients for whom blood transfusion was required” value ([3]; 600 μg oral, n = 237)?
**A.** Its value is 2 patients.

**Q.** And the “Number who had diarrhoea (loose stool)” value ([3]; 600 μg oral, n = 237, first 24 hours after delivery)?
**A.** The value was 7.

**Q.** What about the Number who vomited ([3]; 600 μg oral, n = 237, first hour after delivery) of the same compound?
**A.** Its Number who vomited is 19.

**Q.** And the Duration of shivering ([3]; 600 μg oral, self-limiting, twenty minutes after swallowing the tablets)?
**A.** Its Duration of shivering is 10 to 15 min.

**Q.** What about the “Temperature, mean” value ([3]; after delivery (one hour), 600 μg oral, n = 182) of the same compound?
**A.** Its value is 37.1 C.

**Q.** And the “Diastolic blood pressure, mean” value [3, 7]?
**A.** The value was 73.0 mm Hg.

**Q.** What about the “Systolic blood pressure, mean” value [3, 7] of the same compound?
**A.** Its value is 118.4 mm Hg.

**Q.** And the “Haematocrit, mean” value ([3]; after delivery, 600 μg oral, n = 73)?
**A.** Its value is 0.33.

**Q.** And the “Haematocrit, mean difference” value ([3]; after minus before delivery, n = 73)?
**A.** The value was −0.01.

**Q.** And the “Temperature, mean difference (increase)” value ([3]; after minus before delivery, n = 182)?
**A.** The value was 0.5 C.

**Q.** And the “Diastolic blood pressure, mean difference” value [3, 8]?
**A.** Its value is −0.8 mm Hg.

**Q.** And the “Systolic blood pressure, mean difference” value [3, 8]?
**A.** Its value is −1.0 mm Hg.

**Q.** What about the “Diastolic blood pressure, mean” value [3, 9] of the same compound?
**A.** Its value is 73.8 mm Hg.

**Q.** What about the “Systolic blood pressure, mean” value [3, 9] of the same compound?
**A.** Its value is 119.3 mm Hg.

**Q.** What about the “Haematocrit, mean” value ([3]; before delivery, n = 73) of the same compound?
**A.** Its value is 0.34.

**Q.** And the “Temperature, mean” value ([3]; before delivery, n = 182)?
**A.** The value was 36.6 C.

**Q.** What about the “Mean reduction of diastolic blood pressure (SE)” value [3, 10] of the same compound?
**A.** Its value is 0.8 (0.6) mm Hg.

**Q.** What about the “Mean reduction of systolic blood pressure (SE)” value [3, 10] of the same compound?
**A.** The value was 1.0 (SE=0.9) mm Hg.

**Q.** What about the Hypertensive effects ([3]; women who were normotensive before labour, 600 μg oral) of the same compound?
**A.** Its Hypertensive effects is “could not identify any hypertensive effects”.

**Q.** And the “Effect on blood pressure” value (blood pressure [4])?
**A.** Its value is “substantially normotensive”.

**Q.** What about the “Effect on blood pressure” value (blood pressure [5]) of the same compound?
**A.** Its value is “mild hypotensive effect”.

**Q.** For `CC[C@H](C)[C@@H]1NC(=O)[C@H](Cc2ccc(O)cc2)NC(=O)[C@@H](N)CSSC[C@@H](C(=O)N2CCC[C@H]2C(=O)N[C@@H](CC(C)C)C(=O)NCC(N)=O)NC(=O)[C@H](CC(N)=O)NC(=O)[C@H](CCC(N)=O)NC1=O` [syntocinon], which Time to action [6] is on record?
**A.** Its Time to action is “about 2.5 minutes”.

Reference: patent publication US6664290B1, “Oral or vaginal administration of mesoprostol in third stage labor” (University College London, priority 1994, dated 2003)
